Data from article PMC6213981, “Crystal structures and kinetics of N-acetylneuraminate lyase from Fusobacterium nucleatum” (Acta Crystallographica. Section F, Structural Biology …, 2018).

Molecular target: T1, FnNanA (Fusobacterium nucleatum, UniProt Q8RDN6)
T1 construct: gene nanA; pET300/NT-DEST, synthetic DNA, E. coli BL21 (DE3); tetramer
T1 sequence (Q8RDN6 1-290): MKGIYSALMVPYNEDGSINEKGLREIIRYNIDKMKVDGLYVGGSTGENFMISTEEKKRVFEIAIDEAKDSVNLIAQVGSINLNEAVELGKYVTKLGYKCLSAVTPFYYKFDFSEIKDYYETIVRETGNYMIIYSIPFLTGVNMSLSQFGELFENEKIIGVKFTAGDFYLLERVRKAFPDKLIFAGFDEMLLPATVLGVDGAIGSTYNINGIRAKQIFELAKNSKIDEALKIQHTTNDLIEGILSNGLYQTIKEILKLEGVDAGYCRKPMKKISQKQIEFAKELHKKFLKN
Experiment: X-ray crystal structure, […] Å
Format: binding
Details: covalent; Schiff base with Lys161 in active site; crystallised at pH 9.5, 277 K

In the case of `CC(=O)C(=O)O` [pyruvate], the “X-ray crystal structure, 1.76 Å” value is reported as “N∊ atom of Lys161 is conjugated as a Schiff base to the C2 atom of pyruvate”.
